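Interpolation was linear, between the two tested concentrations surrounding the appropriate level; five concentrations were tested over 48 hours in 96-well plates. GI50 is the concentration that inhibits growth by half.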 Activity calls are given as the source filed them. Cut-off read from the data, not from the text of the source: active = GI50 up to about 1.1 µM and inactive = higher. Non-standard residues stand in square brackets, D forms with d. Residues, ends and D or L forms follow the SMILES beside them. ξ: configuration not given here. *: point of attachment. NMeF = CN[C@@H](Cc1ccccc1)C(=O)O; ξNMeV = CNC(C(=O)O)C(C)C; Boc = CC(C)(C)OC(=O)*; OBn = c1ccc(CO*)cc1
How the values were obtained:
Test in all cases: NCI tumour cell line growth inhibition, 48 h
COLO 205 = test system: COLO 205
T47D = test system: T47D
NCI-H460 = test system: NCI-H460
SK-MEL-28 = test system: SK-MEL-28
KM-20L2 = test system: KM-20L2
SF-539 = test system: SF-539
HT-29 = test system: HT-29
MDA-MB-435 = test system: MDA-MB-435
DU-145 = test system: DU-145
RPMI-8226 = test system: RPMI-8226
K562 = test system: K562
M14 = test system: M14
HCT-116 = test system: HCT-116
SK-OV-3 = test system: SK-OV-3
SF-268 = test system: SF-268
Malme-3M = test system: Malme-3M
HOP-62 = test system: HOP-62
786-0 = test system: 786-0
HL-60 = test system: HL-60

Measured: GI50

COC1=C(NC(C)=O)C(=O)c2nc3n(c2C1=O)CCC3
inactive: COLO 205 21.4 µM | T47D 34.3 µM | NCI-H460 27.5 µM | SK-MEL-28 18.7 µM | KM-20L2 38.3 µM | SF-539 18.6 µM | HT-29 26.5 µM | MDA-MB-435 3.64 µM | DU-145 20.8 µM | RPMI-8226 24.4 µM | K562 26.7 µM | M14 18.2 µM | HCT-116 15.7 µM | SK-OV-3 41.6 µM | SF-268 17.7 µM | Malme-3M 20.4 µM | HOP-62 20.7 µM | 786-0 19.5 µM | HL-60 10.1 µM

CC(C)C(C(=O)N1CCC[C@@H]1C(=O)OCc1ccccc1)N(C)C(=O)C(C(C)C)N(C)C(=O)[C@H](Cc1ccccc1)N(C)C(=O)[C@H](NC(=O)OC(C)(C)C)C(C)C (stereo not given in full) (Boc-[dV][NMeF][ξNMeV][ξNMeV][dP]-OBn)
inactive: COLO 205 > 100 µM | NCI-H460 > 24.3 µM | SK-MEL-28 > 100 µM | KM-20L2 > 100 µM | SF-539 > 100 µM | HT-29 > 45.4 µM | RPMI-8226 10.9 µM | K562 13.7 µM | M14 > 100 µM | HCT-116 14.5 µM | SK-OV-3 > 100 µM | SF-268 > 86.1 µM | Malme-3M > 89.5 µM | HOP-62 > 100 µM | 786-0 > 100 µM | HL-60 4.12 µM

— ChEMBL document CHEMBL1201862, “PubChem BioAssay data set” (2004)
